Blank lines part the entries; values can stand above or below the compound they belong to.
Key:
[1] = Log D7.4 shake flask assay; type: physicochemical; details: octanol/PBS, pH 7.4
Chemical stability assay = type: physicochemical; details: 37 °C
[2] = Caco-2 bidirectional permeability assay; details: human, Caco-2, 10 µM, 37 °C
[3] = test system: MCF7 (EGFR positive cancer cell line); test: LDH release cytotoxicity / cell viability assay in MCF7; type: cell-based; details: Homo sapiens
[4] = buffer pH 2.0, pH 2, Chemical Stability - Half-Life, pH 2.0, 5 µM
[5] = buffer pH 10.0, pH 10, Chemical Stability - Half-Life, pH 10.0, 5 µM

Compound: COc1ccc2[nH]c([S+]([O-])Cc3ncc(C)c(OC)c3C)nc2c1 (stereo not shown) [Omeprazole]
half-life at 5 µM (Chemical stability assay; [4]): 10.2 ± 3.1 min | half-life at 5 µM (Chemical stability assay; [5]): 55.3 ± 11.4 min

Compound: CC(C)(O)CC(=O)NCCn1ccc2ncnc(Nc3ccc(Oc4cccc(C(F)(F)F)c4)c(Cl)c3)c21 [TAK-285]
IC50 [3]: 15.5 ± 5.6 µM

Continued, values first:

solubility at 24 h (Thermodynamic solubility; pH 4.5): < 1 µg/mL | Thermodynamic Solubility (Thermodynamic solubility; pH 7.4, PBS, room temperature, 24 h): 0.72 ± 0.2 µg/mL | logD at 4 h [1]: 3.6 ± 0.1
Compound: CCCSc1ccc2nc(NC(=O)OC)[nH]c2c1 [Albendazole, albendazole]

half-life at 5 µM (Chemical stability assay; [4]): 82.9 ± 14.8 min | half-life at 5 µM (Chemical stability assay; [5]): 8.3 ± 2.6 min
Compound: CC(C)[N+](C)(CCOC(=O)C1c2ccccc2Oc2ccccc21)C(C)C [Propantheline bromide]

Papp at 2 h, 10 µM ([2]; Caco-2, pH 7.4, Papp (Apical to Basal), apical to basal): 29 ± 1.2 ×10⁻⁶ cm/s | Papp at 2 h, 10 µM ([2]; Caco-2, pH 7.4, Papp (Basal to Apical), basal to apical): 21.1 ± 0.3 ×10⁻⁶ cm/s
Compound: CC(C)NCC(O)COc1cccc2ccccc12 (stereo not shown) [Propranolol, propranolol]
